{"source": "patent US20120315337A1", "about": "“MULTIPARTICULATE 5-HTP COMPOSITIONS AND RELATED METHODS” (priority 2011, published 2012)", "origin": "cited, not measured here", "conditions": "comparison of antidepressant drug fluoxamine with 5-HTP; background statement"}
{"smiles": "N[C@@H](Cc1c[nH]c2ccc(O)cc12)C(=O)O", "note": "[5-HTP, L-5-hydroxytryptophan]", "values": [{"measurement": "efficacy in clinical trial", "result": "equally effective"}]}
{"smiles": "COCCCC/C(=N\\OCCN)c1ccc(C(F)(F)F)cc1", "note": "[fluoxamine]", "values": [{"measurement": "efficacy in clinical trial", "result": "equally effective"}]}
